According to ChEMBL document CHEMBL5579809, “Exploration of bromodomain ligand-linker conjugation sites for efficient CBP/p300 heterobifunctional degrader activity” (Bioorg Med Chem Lett, 2024):
Activity calls are given as the source filed them. The calls are words filed in the database; no cut-off is given here.

Experiments:
[1] = molecular target: T1, Protein cereblon/CREB-binding protein (Homo sapiens) (UniProt Q92793+Q96SW2); assay: PROTAC activity at CRBN/HiBiT-tagged CBP in human HAP1 cells assessed as induction of CBP degradation by measuring maximal efficacy at 1 nM measured over 24 hrs by luminescence based analysis relative to control; assay type: cell-based
T1 sequence (Q92793 2-2442 limits assumed): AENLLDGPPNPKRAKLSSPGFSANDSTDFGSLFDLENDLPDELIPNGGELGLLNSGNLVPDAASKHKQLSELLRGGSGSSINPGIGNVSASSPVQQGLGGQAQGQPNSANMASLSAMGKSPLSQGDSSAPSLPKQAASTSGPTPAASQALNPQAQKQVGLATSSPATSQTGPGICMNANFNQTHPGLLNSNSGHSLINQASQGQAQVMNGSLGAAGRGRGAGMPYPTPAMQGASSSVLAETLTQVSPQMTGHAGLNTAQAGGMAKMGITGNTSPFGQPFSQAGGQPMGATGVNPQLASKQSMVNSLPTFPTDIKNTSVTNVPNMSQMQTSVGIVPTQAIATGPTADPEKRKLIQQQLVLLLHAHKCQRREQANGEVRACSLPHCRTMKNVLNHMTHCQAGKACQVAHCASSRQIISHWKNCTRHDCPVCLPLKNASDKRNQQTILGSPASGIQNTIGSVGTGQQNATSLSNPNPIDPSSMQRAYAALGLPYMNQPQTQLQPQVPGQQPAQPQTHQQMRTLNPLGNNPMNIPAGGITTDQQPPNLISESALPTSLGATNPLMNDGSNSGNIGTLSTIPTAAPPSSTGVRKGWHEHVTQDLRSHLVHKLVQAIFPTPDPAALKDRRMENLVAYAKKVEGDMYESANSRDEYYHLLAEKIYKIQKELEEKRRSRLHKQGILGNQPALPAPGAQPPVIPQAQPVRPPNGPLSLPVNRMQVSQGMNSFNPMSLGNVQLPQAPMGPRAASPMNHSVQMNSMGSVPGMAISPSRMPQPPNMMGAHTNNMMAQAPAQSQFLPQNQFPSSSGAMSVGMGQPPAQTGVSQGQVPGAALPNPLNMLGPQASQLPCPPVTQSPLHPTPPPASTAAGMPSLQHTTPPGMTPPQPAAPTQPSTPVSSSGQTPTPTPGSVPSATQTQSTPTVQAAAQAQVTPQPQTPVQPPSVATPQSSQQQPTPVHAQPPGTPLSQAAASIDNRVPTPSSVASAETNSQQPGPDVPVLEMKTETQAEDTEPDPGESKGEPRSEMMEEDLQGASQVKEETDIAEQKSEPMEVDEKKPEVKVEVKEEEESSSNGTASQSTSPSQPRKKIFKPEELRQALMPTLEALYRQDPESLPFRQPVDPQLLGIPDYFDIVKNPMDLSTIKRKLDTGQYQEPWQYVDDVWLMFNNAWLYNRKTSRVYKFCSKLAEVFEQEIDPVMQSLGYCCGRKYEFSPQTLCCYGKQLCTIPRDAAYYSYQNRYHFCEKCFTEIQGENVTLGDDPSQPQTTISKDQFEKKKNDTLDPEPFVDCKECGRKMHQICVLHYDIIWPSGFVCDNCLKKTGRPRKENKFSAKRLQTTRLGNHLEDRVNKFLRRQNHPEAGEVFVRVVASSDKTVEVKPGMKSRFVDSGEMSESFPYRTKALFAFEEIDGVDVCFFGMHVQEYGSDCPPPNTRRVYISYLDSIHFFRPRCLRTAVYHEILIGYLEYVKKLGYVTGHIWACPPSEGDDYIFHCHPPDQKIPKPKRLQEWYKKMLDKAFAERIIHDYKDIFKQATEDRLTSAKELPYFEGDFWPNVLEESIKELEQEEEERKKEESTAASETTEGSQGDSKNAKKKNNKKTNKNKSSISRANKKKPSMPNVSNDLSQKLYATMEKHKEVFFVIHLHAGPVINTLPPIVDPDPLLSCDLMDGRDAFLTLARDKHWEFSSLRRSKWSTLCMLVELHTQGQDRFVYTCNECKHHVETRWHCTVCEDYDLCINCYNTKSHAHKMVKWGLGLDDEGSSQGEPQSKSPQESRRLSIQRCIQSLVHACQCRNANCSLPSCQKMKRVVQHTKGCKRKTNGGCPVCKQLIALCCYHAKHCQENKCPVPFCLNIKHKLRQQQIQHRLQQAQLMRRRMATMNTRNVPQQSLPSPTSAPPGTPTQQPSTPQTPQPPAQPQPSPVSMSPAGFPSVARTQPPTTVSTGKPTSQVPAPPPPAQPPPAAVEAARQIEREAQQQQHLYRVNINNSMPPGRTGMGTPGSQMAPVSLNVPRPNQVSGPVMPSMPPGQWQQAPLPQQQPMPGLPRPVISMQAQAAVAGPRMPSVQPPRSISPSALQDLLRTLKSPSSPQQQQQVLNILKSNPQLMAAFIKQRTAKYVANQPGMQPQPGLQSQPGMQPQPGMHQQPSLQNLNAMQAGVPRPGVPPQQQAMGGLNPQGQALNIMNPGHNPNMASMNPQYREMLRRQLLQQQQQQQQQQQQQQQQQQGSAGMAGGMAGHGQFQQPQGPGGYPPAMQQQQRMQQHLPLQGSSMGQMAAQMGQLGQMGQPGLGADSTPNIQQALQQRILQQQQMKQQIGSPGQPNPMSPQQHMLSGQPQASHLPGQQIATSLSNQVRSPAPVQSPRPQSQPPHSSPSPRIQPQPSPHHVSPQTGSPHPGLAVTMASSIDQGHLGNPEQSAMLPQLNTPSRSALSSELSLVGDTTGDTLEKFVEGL
T1 sequence (Q96SW2 whole entry partner): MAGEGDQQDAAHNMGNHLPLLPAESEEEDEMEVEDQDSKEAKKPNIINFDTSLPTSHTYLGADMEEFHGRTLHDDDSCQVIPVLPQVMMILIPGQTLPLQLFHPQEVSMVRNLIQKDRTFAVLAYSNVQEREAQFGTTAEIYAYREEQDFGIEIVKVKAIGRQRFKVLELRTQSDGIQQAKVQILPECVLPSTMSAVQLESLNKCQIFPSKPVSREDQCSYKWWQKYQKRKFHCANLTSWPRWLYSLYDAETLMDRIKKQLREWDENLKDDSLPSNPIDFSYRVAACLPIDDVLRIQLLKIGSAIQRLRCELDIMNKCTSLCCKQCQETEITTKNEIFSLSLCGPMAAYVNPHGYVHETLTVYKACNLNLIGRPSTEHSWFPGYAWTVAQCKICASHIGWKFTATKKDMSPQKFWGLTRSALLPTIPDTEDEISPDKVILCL

[2] = molecular target: T1, Protein cereblon/CREB-binding protein (Homo sapiens); assay: PROTAC activity at CRBN/HiBiT-tagged CBP in human HAP1 cells assessed as induction of CBP degradation by measuring maximal efficacy at 0.1 nM measured over 24 hrs by luminescence based analysis relative to control; assay type: cell-based
[3] = molecular target: T1, Protein cereblon/CREB-binding protein (Homo sapiens); assay: Binding affinity to recombinant CRBN/CBP bromodomain (unknown origin) assessed as ternary complex formation at 10 to 100 nM by Alphascreen-based proximity assay; assay type: protein assay; conditions: dose 10-100 nM
[4] = molecular target: T1, Protein cereblon/CREB-binding protein (Homo sapiens); assay: PROTAC activity at CRBN/HiBiT-tagged CBP in human HAP1 cells assessed as total cumulative degradation by measuring AUC at 10 nM measured over 24 hrs by luminescence based analysis; assay type: cell-based
[5] = molecular target: T2, Protein cereblon/Histone acetyltransferase p300 (Homo sapiens) (UniProt Q09472+Q96SW2); assay: PROTAC activity at CRBN/HiBiT-tagged p300 in human HAP1 cells assessed as induction of p300 degradation by measuring degradation rate at 1000 nM measured over 24 hrs by luminescence based analysis; assay type: cell-based
[6] = molecular target: T2, Protein cereblon/Histone acetyltransferase p300 (Homo sapiens); assay: PROTAC activity at CRBN/HiBiT-tagged p300 in human HAP1 cells assessed as induction of p300 degradation by measuring maximal efficacy at 10 nM measured over 24 hrs by luminescence based analysis relative to control; assay type: cell-based
[7] = molecular target: T2, Protein cereblon/Histone acetyltransferase p300 (Homo sapiens); assay: PROTAC activity at CRBN/HiBiT-tagged p300 in human HAP1 cells assessed as total cumulative degradation by measuring AUC at 0.1 nM measured over 24 hrs by luminescence based analysis; assay type: cell-based
[8] = molecular target: T1, Protein cereblon/CREB-binding protein (Homo sapiens); assay: PROTAC activity at CRBN/HiBiT-tagged CBP in human HAP1 cells assessed as total cumulative degradation by measuring AUC at 1 nM measured over 24 hrs by luminescence based analysis; assay type: cell-based
[9] = molecular target: T2, Protein cereblon/Histone acetyltransferase p300 (Homo sapiens); assay: PROTAC activity at CRBN/HiBiT-tagged p300 in human HAP1 cells assessed as total cumulative degradation by measuring AUC at 1000 nM measured over 24 hrs by luminescence based analysis; assay type: cell-based
[10] = molecular target: T2, Protein cereblon/Histone acetyltransferase p300 (Homo sapiens); assay: PROTAC activity at CRBN/HiBiT-tagged p300 in human HAP1 cells assessed as induction of p300 degradation by measuring maximal efficacy at 1000 nM measured over 24 hrs by luminescence based analysis relative to control; assay type: cell-based
[11] = molecular target: T2, Protein cereblon/Histone acetyltransferase p300 (Homo sapiens); assay: PROTAC activity at CRBN/HiBiT-tagged p300 in human HAP1 cells assessed as induction of p300 degradation by measuring maximal efficacy at 100 nM measured over 24 hrs by luminescence based analysis relative to control; assay type: cell-based
[12] = molecular target: T1, Protein cereblon/CREB-binding protein (Homo sapiens); assay: PROTAC activity at CRBN/HiBiT-tagged CBP in human HAP1 cells assessed as total cumulative degradation by measuring AUC at 100 nM measured over 24 hrs by luminescence based analysis; assay type: cell-based
[13] = molecular target: T1, Protein cereblon/CREB-binding protein (Homo sapiens); assay: PROTAC activity at CRBN/HiBiT-tagged CBP in human HAP1 cells assessed as induction of CBP degradation by measuring degradation rate at 10 nM measured over 24 hrs by luminescence based analysis; assay type: cell-based
[14] = molecular target: T2, Protein cereblon/Histone acetyltransferase p300 (Homo sapiens); assay: PROTAC activity at CRBN/HiBiT-tagged p300 in human HAP1 cells assessed as induction of p300 degradation by measuring degradation rate at 0.1 nM measured over 24 hrs by luminescence based analysis; assay type: cell-based
[15] = molecular target: T2, Protein cereblon/Histone acetyltransferase p300 (Homo sapiens); assay: Binding affinity to recombinant CRBN/p300 bromodomain (unknown origin) assessed as ternary complex formation at 10 to 100 nM by Alphascreen-based proximity assay; assay type: protein assay; conditions: dose 10-100 nM
[16] = molecular target: T2, Protein cereblon/Histone acetyltransferase p300 (Homo sapiens); assay: PROTAC activity at CRBN/HiBiT-tagged p300 in human HAP1 cells assessed as total cumulative degradation by measuring AUC at 100 nM measured over 24 hrs by luminescence based analysis; assay type: cell-based
[17] = molecular target: T1, Protein cereblon/CREB-binding protein (Homo sapiens); assay: PROTAC activity at CRBN/HiBiT-tagged CBP in human HAP1 cells assessed as induction of CBP degradation by measuring degradation rate at 100 nM measured over 24 hrs by luminescence based analysis; assay type: cell-based
[18] = molecular target: T1, Protein cereblon/CREB-binding protein (Homo sapiens); assay: PROTAC activity at CRBN/HiBiT-tagged CBP in human HAP1 cells assessed as induction of CBP degradation by measuring degradation rate at 1 nM measured over 24 hrs by luminescence based analysis; assay type: cell-based
[19] = molecular target: T2, Protein cereblon/Histone acetyltransferase p300 (Homo sapiens); assay: PROTAC activity at CRBN/HiBiT-tagged p300 in human HAP1 cells assessed as induction of p300 degradation by measuring maximal efficacy at 0.1 nM measured over 24 hrs by luminescence based analysis relative to control; assay type: cell-based
[20] = molecular target: T2, Protein cereblon/Histone acetyltransferase p300 (Homo sapiens); assay: PROTAC activity at CRBN/HiBiT-tagged p300 in human HAP1 cells assessed as total cumulative degradation by measuring AUC at 1 nM measured over 24 hrs by luminescence based analysis; assay type: cell-based
[21] = molecular target: T1, Protein cereblon/CREB-binding protein (Homo sapiens); assay: PROTAC activity at CRBN/HiBiT-tagged CBP in human HAP1 cells assessed as induction of CBP degradation by measuring maximal efficacy at 1000 nM measured over 24 hrs by luminescence based analysis relative to control; assay type: cell-based
[22] = molecular target: Protein cereblon/Bromodomain-containing protein 4 (Homo sapiens) (UniProt O60885+Q96SW2); assay: PROTAC activity at CRBN/HiBiT-tagged BRD4 in human HAP1 cells assessed as induction of BRD4 degradation measured over 24 hrs by luminescence based analysis; assay type: cell-based
Sequence of Protein cereblon/Bromodomain-containing protein 4 (Homo sapiens) (Q96SW2 whole entry, looked up, other chains not shown): as the sequence (Q96SW2 whole entry partner) above

[23] = molecular target: T2, Protein cereblon/Histone acetyltransferase p300 (Homo sapiens); assay: PROTAC activity at CRBN/HiBiT-tagged p300 in human HAP1 cells assessed as induction of p300 degradation by measuring maximal efficacy at 1 nM measured over 24 hrs by luminescence based analysis relative to control; assay type: cell-based
[24] = molecular target: T1, Protein cereblon/CREB-binding protein (Homo sapiens); assay: PROTAC activity at CRBN/HiBiT-tagged CBP in human HAP1 cells assessed as induction of CBP degradation by measuring maximal efficacy at 100 nM measured over 24 hrs by luminescence based analysis relative to control; assay type: cell-based
[25] = molecular target: T2, Protein cereblon/Histone acetyltransferase p300 (Homo sapiens); assay: PROTAC activity at CRBN/HiBiT-tagged p300 in human HAP1 cells assessed as total cumulative degradation by measuring AUC at 0.01 nM measured over 24 hrs by luminescence based analysis; assay type: cell-based
[26] = molecular target: T1, Protein cereblon/CREB-binding protein (Homo sapiens); assay: PROTAC activity at CRBN/HiBiT-tagged CBP in human HAP1 cells assessed as total cumulative degradation by measuring AUC at 0.01 nM measured over 24 hrs by luminescence based analysis; assay type: cell-based
[27] = molecular target: T2, Protein cereblon/Histone acetyltransferase p300 (Homo sapiens); assay: PROTAC activity at CRBN/HiBiT-tagged p300 in human HAP1 cells assessed as induction of p300 degradation by measuring degradation rate at 1 nM measured over 24 hrs by luminescence based analysis; assay type: cell-based
[28] = molecular target: T2, Protein cereblon/Histone acetyltransferase p300 (Homo sapiens); assay: PROTAC activity at CRBN/HiBiT-tagged p300 in human HAP1 cells assessed as induction of p300 degradation by measuring degradation rate at 100 nM measured over 24 hrs by luminescence based analysis; assay type: cell-based
[29] = molecular target: T1, Protein cereblon/CREB-binding protein (Homo sapiens); assay: PROTAC activity at CRBN/HiBiT-tagged CBP in human HAP1 cells assessed as total cumulative degradation by measuring AUC at 0.1 nM measured over 24 hrs by luminescence based analysis; assay type: cell-based
[30] = molecular target: T1, Protein cereblon/CREB-binding protein (Homo sapiens); assay: PROTAC activity at CRBN/HiBiT-tagged CBP in human HAP1 cells assessed as induction of CBP degradation by measuring maximal efficacy at 10 nM measured over 24 hrs by luminescence based analysis relative to control; assay type: cell-based
[31] = molecular target: T1, Protein cereblon/CREB-binding protein (Homo sapiens); assay: PROTAC activity at CRBN/HiBiT-tagged CBP in human HAP1 cells assessed as total cumulative degradation by measuring AUC at 1000 nM measured over 24 hrs by luminescence based analysis; assay type: cell-based
[32] = molecular target: T1, Protein cereblon/CREB-binding protein (Homo sapiens); assay: PROTAC activity at CRBN/HiBiT-tagged CBP in human HAP1 cells assessed as induction of CBP degradation by measuring degradation rate at 1000 nM measured over 24 hrs by luminescence based analysis; assay type: cell-based
[33] = molecular target: T2, Protein cereblon/Histone acetyltransferase p300 (Homo sapiens); assay: PROTAC activity at CRBN/HiBiT-tagged p300 in human HAP1 cells assessed as induction of p300 degradation by measuring degradation rate at 10 nM measured over 24 hrs by luminescence based analysis; assay type: cell-based
[34] = molecular target: T1, Protein cereblon/CREB-binding protein (Homo sapiens); assay: PROTAC activity at CRBN/HiBiT-tagged CBP in human HAP1 cells assessed as induction of CBP degradation by measuring degradation rate at 0.1 nM measured over 24 hrs by luminescence based analysis; assay type: cell-based
[35] = molecular target: T2, Protein cereblon/Histone acetyltransferase p300 (Homo sapiens); assay: PROTAC activity at CRBN/HiBiT-tagged p300 in human HAP1 cells assessed as total cumulative degradation by measuring AUC at 10 nM measured over 24 hrs by luminescence based analysis; assay type: cell-based
[36] = molecular target: T1, Protein cereblon/CREB-binding protein (Homo sapiens); assay: Binding affinity to recombinant CRBN/CBP bromodomain (unknown origin) assessed as ternary complex formation at 1 to 1000 nM by Alphascreen-based proximity assay; assay type: protein assay; conditions: dose 1-1000 nM
[37] = molecular target: T2, Protein cereblon/Histone acetyltransferase p300 (Homo sapiens); assay: Binding affinity to recombinant CRBN/p300 bromodomain (unknown origin) assessed as ternary complex formation at 1 to 1000 nM by Alphascreen-based proximity assay; assay type: protein assay; conditions: dose 1-1000 nM

Emax [1] [%]	Emax [2] [%]	AUC [4]	Activity [5] [h⁻¹]	Emax [6] [%]	AUC [7]	AUC [8]	AUC [9]	Emax [10] [%]	Emax [11] [%]	AUC [12]	Activity [13] [h⁻¹]	AUC [16]	Activity [17] [h⁻¹]	Activity [18] [h⁻¹]	AUC [20]	Emax [21] [%]	Activity [22]	Emax [23] [%]	Emax [24] [%]	SMILES	further results
61	20	4.4	0.42	82	23.2	10.7	6	84	88	4	1.3	3.9	0.83	0.63	12.3	80	inactive	56	88	CNC(=O)N1CCc2c(c(N3CCCc4cc(-c5cnn(C)c5)c(C(F)(F)F)cc43)nn2C2CCN(C(=O)CCOCCOCCOCCOCCNc3ccc4c(c3)C(=O)N(C3CCC(=O)NC3=O)C4=O)CC2)C1 (stereo not drawn)	Activity [3]: Active; Activity [14]: 1 10^-4/hr; Activity [15]: Active; Emax [19]: 17%; AUC [25]: 26.5; AUC [26]: 24.1; Activity [27]: 0.41 h⁻¹; Activity [28]: 1 h⁻¹; AUC [29]: 20.8; Emax [30]: 85%; AUC [31]: 7.4; Activity [32]: 0.32 h⁻¹; Activity [33]: 1.3 h⁻¹; Activity [34]: 0.21 h⁻¹; AUC [35]: 5.2
63	25	4.4	0.57	83	21.7	10.4	4.8	86	88	3.9	1.1	3.7	0.81	0.54	12.2	83	inactive	57	89	CNC(=O)N1CCc2c(c(N3CCCc4cc(-c5cnn(C)c5)c(C(F)F)cc43)nn2C2CCN(C(=O)CCOCCOCCOCCOCCNc3ccc4c(c3)C(=O)N(C3CCC(=O)NC3=O)C4=O)CC2)C1 (stereo not drawn)	Activity [36]: Active; Activity [14]: 0.02 h⁻¹; Emax [19]: 27%; AUC [25]: 26.1; Activity [37]: Active; AUC [26]: 24.7; Activity [27]: 0.37 h⁻¹; Activity [28]: 1 h⁻¹; AUC [29]: 20.7; Emax [30]: 86%; AUC [31]: 6.4; Activity [32]: 0.4 h⁻¹; Activity [33]: 1 h⁻¹; Activity [34]: 0.12 h⁻¹; AUC [35]: 5.1
44	11	10.3	0.09	71	24.7	15.6	16.5	58	73	12.1	0.31	9.4	0.19	0.26	16.1	64	inactive	44	65	CNC(=O)N1CCc2c(c(N3CCCc4cc(-c5cnn(C)c5)c(C(F)F)cc43)nn2C2CCN(C(=O)CCOCCNc3ccc4c(c3)C(=O)N(C3CCC(=O)NC3=O)C4=O)CC2)C1 (stereo not drawn)	Activity [3]: Active; Activity [15]: Active; AUC [25]: 27.3; AUC [26]: 25.6; Activity [27]: 0.2 h⁻¹; Activity [28]: 0.29 h⁻¹; AUC [29]: 23.7; Emax [30]: 68%; AUC [31]: 19.5; Activity [32]: 0.36 h⁻¹; Activity [33]: 0.35 h⁻¹; Activity [34]: 1.2 10^-4/hr; AUC [35]: 9.2
